Assay results from US20080009418A1, “Selective Inhibitors” (Alchemia LTD., priority 2004, published 2008).

What was measured:
Human melanocortin (MC5) = target: T1, Human melanocortin (MC5) (Homo sapiens, UniProt P33032); assay: Radioligand binding, human melanocortin MC5 membranes, FlashPlate, [125I]-NDP-αMSH; settings: compound at 10 μM, [125I]-NDP-αMSH
T1 construct: purchased Perkin Elmer Biosignal
In short: (§1)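 Cloned human receptor membranes were coated onto FlashPlate wells and incubated with radioligand and compound (added from a 0.5 mM DMSO daughter plate) for 1 hour at room temperature in the dark. Scintillation counting gave percent inhibition, with DMSO defining total and reference ligand defining non-specific binding.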

Human Melanocortin (MC3) = target: T2, Human Melanocortin (MC3) (Homo sapiens, UniProt P41968); assay: Radioligand binding, human melanocortin MC3 membranes, FlashPlate, [125I]-NDP-αMSH; settings: compound at 10 μM, [125I]-NDP-αMSH
T2 construct: purchased Perkin Elmer Biosignal
In short: as §1

Mouse urotensin (mUR2) = target: T3, Mouse urotensin (mUR2) (Mus musculus, UniProt Q8VIH9); assay: Radioligand binding, mouse urotensin mUR2 membranes, FlashPlate, [125I]-Urotensin II; settings: compound at 10 μM, [125I]-Urotensin II
T3 construct: purchased Perkin Elmer Biosignal
T3 sequence (Q8VIH9 1-385): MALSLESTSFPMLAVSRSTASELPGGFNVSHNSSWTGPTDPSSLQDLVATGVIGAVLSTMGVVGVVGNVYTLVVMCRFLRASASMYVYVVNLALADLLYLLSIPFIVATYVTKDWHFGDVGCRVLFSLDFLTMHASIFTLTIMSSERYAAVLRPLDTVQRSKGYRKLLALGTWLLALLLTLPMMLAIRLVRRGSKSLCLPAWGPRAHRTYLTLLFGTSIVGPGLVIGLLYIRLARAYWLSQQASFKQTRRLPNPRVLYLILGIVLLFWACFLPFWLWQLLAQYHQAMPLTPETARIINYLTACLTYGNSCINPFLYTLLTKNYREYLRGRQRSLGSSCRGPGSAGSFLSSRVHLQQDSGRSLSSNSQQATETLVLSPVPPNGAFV
In short: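 Cloned mouse urotensin (mUR2) receptor membranes from Perkin Elmer Biosignal were immobilized in FlashPlate microplates using a proprietary coating. Each well got 19.5 μl buffer, then 0.5 μl of DMSO, reference ligand, or compound. Adding 5 μl of [125I]-Urotensin II, diluted to 5× final concentration in binding buffer, started binding. Plates were sealed with TopSeal-A and incubated 1 hour at room temperature in the dark. Wells were counted for 30 seconds each on a TopCount after a 60-second delay, and percentage inhibition was calculated.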

Human μ-opioid (MOP) = target: T4, Human μ-opioid (MOP) (Homo sapiens, UniProt P35372); assay: Radioligand binding, human μ-opioid (MOP) membranes, FlashPlate, [3H]-Naloxone; settings: compound at 10 μM, [3H]-Naloxone
T4 construct: purchased Perkin Elmer Biosignal
In short: as §1

Human κ-Opioid (KOP) = target: T5, Human κ-Opioid (KOP) (Homo sapiens, UniProt P41145); assay: Radioligand binding, human κ-opioid (KOP) membranes, filtration, [3H]-Diprenorphine; settings: compound at 10 μM, [3H]-Diprenorphine
T5 construct: purchased Perkin Elmer Biosignal
In short: (§2)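 Membranes from cloned human receptors were incubated with compound and radioligand for 1 hour at room temperature. Bound ligand was collected on 0.3% PEI-soaked filters, washed with cold 50 mM Tris-HCl pH 7.4, and counted by scintillation. Percent inhibition was computed against DMSO totals and reference-ligand nonspecific wells.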

Human neurokinin (NK1) = target: T6, Human neurokinin (NK1) (Homo sapiens, UniProt P25103); assay: Radioligand binding, human neurokinin NK1 membranes, filtration, [125I]-Substance P; settings: compound at 10 μM, [125I]-Substance P
T6 construct: purchased Perkin Elmer Biosignal
In short: as §2

[1] = target: T7, Human melanin-concentrating hormone (MCH1) (Homo sapiens, UniProt Q99705); assay: Radioligand binding, human melanin-concentrating hormone MCH1 membranes, FlashPlate, [125I]-S36057; settings: compound at 10 μM
T7 construct: purchased Perkin Elmer Biosignal
In short: as §1

Human δ-opioid (DOP) = target: T8, Human δ-opioid (DOP) (Homo sapiens, UniProt P41143); assay: Radioligand binding, human δ-opioid (DOP) membranes, FlashPlate, [3H]-Bremazocine; settings: compound at 10 μM, [3H]-Bremazocine
T8 construct: purchased Perkin Elmer Biosignal
In short: as §1

Human opioid (ORL1) = target: T9, Human opioid (ORL1) (Homo sapiens, UniProt P41146); assay: Radioligand binding, human opioid ORL1 membranes, FlashPlate, [125I]-Nociceptin; settings: compound at 10 μM, [125I]-Nociceptin
T9 construct: purchased Perkin Elmer Biosignal
In short: as §1

[2] = target: T10, Human neuropeptide Y (NPY-Y1) (Homo sapiens, UniProt P25929); assay: Radioligand binding, human neuropeptide Y NPY-Y1 membranes, FlashPlate, [125I]-PYY; settings: compound at 10 μM, [125I]-PYY
T10 construct: purchased Perkin Elmer Biosignal
T10 sequence (P25929 1-384): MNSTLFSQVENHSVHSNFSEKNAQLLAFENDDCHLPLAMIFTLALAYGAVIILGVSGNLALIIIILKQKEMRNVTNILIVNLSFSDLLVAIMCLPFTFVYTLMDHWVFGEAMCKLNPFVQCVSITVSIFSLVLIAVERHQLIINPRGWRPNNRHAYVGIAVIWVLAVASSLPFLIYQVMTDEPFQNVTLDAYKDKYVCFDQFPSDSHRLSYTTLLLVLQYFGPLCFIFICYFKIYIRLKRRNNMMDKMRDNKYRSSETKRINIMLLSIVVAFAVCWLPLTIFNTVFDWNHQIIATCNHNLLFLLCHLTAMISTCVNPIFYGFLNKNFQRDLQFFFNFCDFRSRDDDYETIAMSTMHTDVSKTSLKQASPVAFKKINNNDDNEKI
In short: as §1

Human Melanocortin (MC4) = target: T11, Human Melanocortin (MC4) (Homo sapiens, UniProt P32245); assay: Radioligand binding, human melanocortin MC4 membranes, FlashPlate, [125I]-NDP-αMSH; settings: compound at 10 μM, [125I]-NDP-αMSH
T11 construct: purchased Perkin Elmer Biosignal
In short: as §1

T1 sequence (P33032 whole entry): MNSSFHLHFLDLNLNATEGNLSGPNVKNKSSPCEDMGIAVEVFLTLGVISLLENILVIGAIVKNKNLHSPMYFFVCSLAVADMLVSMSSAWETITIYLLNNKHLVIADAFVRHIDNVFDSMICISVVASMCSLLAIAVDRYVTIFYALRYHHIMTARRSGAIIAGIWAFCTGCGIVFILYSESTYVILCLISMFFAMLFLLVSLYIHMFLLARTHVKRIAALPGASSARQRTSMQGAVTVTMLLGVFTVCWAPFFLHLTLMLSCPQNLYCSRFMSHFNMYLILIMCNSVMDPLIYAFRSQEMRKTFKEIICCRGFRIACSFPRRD
T2 sequence (P41968 whole entry): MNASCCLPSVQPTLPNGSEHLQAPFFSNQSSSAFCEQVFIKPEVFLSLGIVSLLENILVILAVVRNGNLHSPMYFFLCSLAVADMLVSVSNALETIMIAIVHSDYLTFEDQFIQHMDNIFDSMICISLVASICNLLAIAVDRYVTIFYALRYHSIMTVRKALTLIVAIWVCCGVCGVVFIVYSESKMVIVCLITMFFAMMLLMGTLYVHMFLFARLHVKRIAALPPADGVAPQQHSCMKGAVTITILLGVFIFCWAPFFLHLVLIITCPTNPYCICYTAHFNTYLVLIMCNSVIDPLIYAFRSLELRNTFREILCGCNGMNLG
T9 sequence (P41146 whole entry): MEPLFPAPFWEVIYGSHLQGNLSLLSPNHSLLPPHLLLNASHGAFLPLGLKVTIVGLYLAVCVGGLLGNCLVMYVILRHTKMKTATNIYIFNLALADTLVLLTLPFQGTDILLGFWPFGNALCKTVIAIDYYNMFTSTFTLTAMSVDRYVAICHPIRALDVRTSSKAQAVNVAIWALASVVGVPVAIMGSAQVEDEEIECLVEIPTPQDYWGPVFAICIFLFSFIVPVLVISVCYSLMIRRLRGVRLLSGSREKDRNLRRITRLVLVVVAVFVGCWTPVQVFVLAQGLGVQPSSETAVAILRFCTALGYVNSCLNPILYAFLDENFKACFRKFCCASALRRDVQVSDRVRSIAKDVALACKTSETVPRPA
T6 sequence (P25103 whole entry): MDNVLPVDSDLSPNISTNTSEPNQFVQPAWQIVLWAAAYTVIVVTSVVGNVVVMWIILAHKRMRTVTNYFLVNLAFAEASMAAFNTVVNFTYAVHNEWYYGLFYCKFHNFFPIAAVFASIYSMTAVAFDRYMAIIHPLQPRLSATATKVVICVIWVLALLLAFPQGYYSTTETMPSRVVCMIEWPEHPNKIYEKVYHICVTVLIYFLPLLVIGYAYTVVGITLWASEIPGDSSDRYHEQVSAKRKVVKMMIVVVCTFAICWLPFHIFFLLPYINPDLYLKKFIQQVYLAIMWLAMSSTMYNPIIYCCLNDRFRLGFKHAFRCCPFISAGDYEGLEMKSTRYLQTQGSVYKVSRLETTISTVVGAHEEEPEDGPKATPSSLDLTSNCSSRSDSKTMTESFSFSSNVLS
T4 sequence (P35372 whole entry): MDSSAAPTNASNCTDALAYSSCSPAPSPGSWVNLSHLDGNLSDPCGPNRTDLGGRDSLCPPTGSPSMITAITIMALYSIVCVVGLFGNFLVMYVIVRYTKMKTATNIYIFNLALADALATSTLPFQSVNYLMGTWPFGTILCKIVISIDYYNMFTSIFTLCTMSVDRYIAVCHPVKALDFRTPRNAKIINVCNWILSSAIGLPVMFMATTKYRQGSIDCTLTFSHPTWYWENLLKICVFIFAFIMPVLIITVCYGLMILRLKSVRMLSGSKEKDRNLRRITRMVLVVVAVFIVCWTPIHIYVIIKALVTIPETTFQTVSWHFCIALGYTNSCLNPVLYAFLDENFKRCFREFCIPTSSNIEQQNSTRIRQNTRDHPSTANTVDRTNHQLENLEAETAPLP
T11 sequence (P32245 whole entry): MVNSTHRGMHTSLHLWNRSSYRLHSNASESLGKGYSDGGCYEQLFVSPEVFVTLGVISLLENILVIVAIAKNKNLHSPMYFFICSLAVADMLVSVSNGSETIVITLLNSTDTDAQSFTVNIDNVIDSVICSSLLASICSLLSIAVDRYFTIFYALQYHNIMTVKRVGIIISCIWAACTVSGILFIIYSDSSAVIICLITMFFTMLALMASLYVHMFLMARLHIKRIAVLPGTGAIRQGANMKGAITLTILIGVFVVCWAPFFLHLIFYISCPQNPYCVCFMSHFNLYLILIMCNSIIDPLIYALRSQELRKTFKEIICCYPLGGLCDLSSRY
T7 sequence (Q99705 whole entry): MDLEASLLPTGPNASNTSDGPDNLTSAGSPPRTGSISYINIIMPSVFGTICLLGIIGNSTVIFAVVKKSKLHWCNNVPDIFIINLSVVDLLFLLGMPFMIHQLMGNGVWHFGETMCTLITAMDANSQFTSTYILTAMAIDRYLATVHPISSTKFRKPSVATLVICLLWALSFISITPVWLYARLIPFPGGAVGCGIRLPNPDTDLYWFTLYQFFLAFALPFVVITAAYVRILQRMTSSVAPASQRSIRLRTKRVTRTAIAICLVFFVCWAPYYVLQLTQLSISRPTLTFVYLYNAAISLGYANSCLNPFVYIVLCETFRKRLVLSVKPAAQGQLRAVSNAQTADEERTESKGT
T5 sequence (P41145 whole entry): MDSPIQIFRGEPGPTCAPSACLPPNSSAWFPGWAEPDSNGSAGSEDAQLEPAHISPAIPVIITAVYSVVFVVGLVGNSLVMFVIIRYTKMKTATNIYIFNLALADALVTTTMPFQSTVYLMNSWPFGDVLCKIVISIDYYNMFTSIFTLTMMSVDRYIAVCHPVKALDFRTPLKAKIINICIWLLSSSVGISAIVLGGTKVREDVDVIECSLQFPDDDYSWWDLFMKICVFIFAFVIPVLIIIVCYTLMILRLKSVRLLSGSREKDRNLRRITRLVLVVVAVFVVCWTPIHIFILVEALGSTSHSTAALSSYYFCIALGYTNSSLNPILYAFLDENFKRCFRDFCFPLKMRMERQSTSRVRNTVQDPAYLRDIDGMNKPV
T8 sequence (P41143 whole entry): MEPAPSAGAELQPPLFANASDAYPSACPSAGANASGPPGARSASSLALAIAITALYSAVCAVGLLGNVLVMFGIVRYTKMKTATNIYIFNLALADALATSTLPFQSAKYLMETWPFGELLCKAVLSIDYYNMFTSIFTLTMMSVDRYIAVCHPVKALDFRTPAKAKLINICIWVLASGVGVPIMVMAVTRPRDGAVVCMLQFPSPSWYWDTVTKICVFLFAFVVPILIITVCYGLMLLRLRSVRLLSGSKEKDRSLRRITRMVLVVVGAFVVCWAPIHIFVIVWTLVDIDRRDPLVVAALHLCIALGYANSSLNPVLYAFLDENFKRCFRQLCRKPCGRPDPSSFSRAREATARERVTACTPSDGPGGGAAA

SMILES: CSC1OC(COCc2ccccc2)C(O)C(OCc2ccc3ccccc3c2)C1NC(=O)CCNC(=N)N (stereo not drawn) [compound 303]
- A5: inhibition of radioligand binding, human melanocortin (MC5) (Human melanocortin (MC5)): + (“+” indicates greater than 50% inhibition at 10 μM)
- A3: inhibition of radioligand binding, human melanocortin (MC3) (Human Melanocortin (MC3)): − (“−” indicates less than 50% inhibition at 10 μM)
- A11: inhibition of radioligand binding, mouse urotensin (mUR2) (Mouse urotensin (mUR2)): − (“−” indicates less than 50% inhibition at 10 μM)
- A7: inhibition of radioligand binding, human μ-opioid (MOP) (Human μ-opioid (MOP)): − (“−” indicates less than 50% inhibition at 10 μM)
- A2: inhibition of radioligand binding, human κ-opioid (KOP) (Human κ-Opioid (KOP)): − (“−” indicates less than 50% inhibition at 10 μM)
- A8: inhibition of radioligand binding, human neurokinin (NK1) (Human neurokinin (NK1)): + (“+” indicates greater than 50% inhibition at 10 μM)
- A6: inhibition of radioligand binding, human melanin-concentrating hormone (MCH1) ([1]; [125I]-S36057): − (“−” indicates less than 50% inhibition at 10 μM)
- A1: inhibition of radioligand binding, human δ-opioid (DOP) (Human δ-opioid (DOP)): − (“−” indicates less than 50% inhibition at 10 μM)
- A10: inhibition of radioligand binding, human opioid (ORL1) (Human opioid (ORL1)): − (“−” indicates less than 50% inhibition at 10 μM)
- A9: inhibition of radioligand binding, human neuropeptide Y (NPY-Y1) [2]: − (“−” indicates less than 50% inhibition at 10 μM)
- A4: inhibition of radioligand binding, human melanocortin (MC4) (Human Melanocortin (MC4)): + (“+” indicates greater than 50% inhibition at 10 μM)

SMILES: COCC1OC(OCc2ccccc2)C(NC(=O)CCNC(=N)N)C(OCc2ccccc2)C1O (stereo not drawn) [compound 173]
- A5 radioligand binding, percentage inhibition (Human melanocortin (MC5)): − (“−” indicates less than 50% inhibition at 10 μM)
- A3 radioligand binding, percentage inhibition (Human Melanocortin (MC3)): − (“−” indicates less than 50% inhibition at 10 μM)
- A11 radioligand binding, percentage inhibition (Mouse urotensin (mUR2)): − (“−” indicates less than 50% inhibition at 10 μM)
- A7 radioligand binding, percentage inhibition (Human μ-opioid (MOP)): − (“−” indicates less than 50% inhibition at 10 μM)
- A2 radioligand binding, percentage inhibition (Human κ-Opioid (KOP)): − (“−” indicates less than 50% inhibition at 10 μM)
- A8 radioligand binding, percentage inhibition (Human neurokinin (NK1)): + (“+” indicates greater than 50% inhibition at 10 μM)
- A6 radioligand binding, percentage inhibition ([1]; [125I]-S36057): − (“−” indicates less than 50% inhibition at 10 μM)
- A1 radioligand binding, percentage inhibition (Human δ-opioid (DOP)): − (“−” indicates less than 50% inhibition at 10 μM)
- A10 radioligand binding, percentage inhibition (Human opioid (ORL1)): − (“−” indicates less than 50% inhibition at 10 μM)
- A9 radioligand binding, percentage inhibition [2]: − (“−” indicates less than 50% inhibition at 10 μM)
- A4 radioligand binding, percentage inhibition (Human Melanocortin (MC4)): − (“−” indicates less than 50% inhibition at 10 μM)

SMILES: COCC1OC(OCc2ccc3ccccc3c2)C(NC(=O)CCN)C(OCc2ccc(-c3ccccc3)cc2)C1O (stereo not drawn) [compound 243]
- A5: inhibition of radioligand binding (Human melanocortin (MC5); FlashPlate): + (“+” indicates greater than 50% inhibition at 10 μM)
- A3: inhibition of radioligand binding (Human Melanocortin (MC3); FlashPlate): − (“−” indicates less than 50% inhibition at 10 μM)
- A11: inhibition of radioligand binding (Mouse urotensin (mUR2); FlashPlate): − (“−” indicates less than 50% inhibition at 10 μM)
- A7: inhibition of radioligand binding (Human μ-opioid (MOP); FlashPlate): − (“−” indicates less than 50% inhibition at 10 μM)
- A2: inhibition of radioligand binding (Human κ-Opioid (KOP); filtration): − (“−” indicates less than 50% inhibition at 10 μM)
- A8: inhibition of radioligand binding (Human neurokinin (NK1); filtration): + (“+” indicates greater than 50% inhibition at 10 μM)
- A6: inhibition of radioligand binding ([1]; [125I]-S36057, FlashPlate): − (“−” indicates less than 50% inhibition at 10 μM)
- A1: inhibition of radioligand binding (Human δ-opioid (DOP); FlashPlate): − (“−” indicates less than 50% inhibition at 10 μM)
- A10: inhibition of radioligand binding (Human opioid (ORL1); FlashPlate): − (“−” indicates less than 50% inhibition at 10 μM)
- A9: inhibition of radioligand binding ([2]; FlashPlate): − (“−” indicates less than 50% inhibition at 10 μM)
- A4: inhibition of radioligand binding (Human Melanocortin (MC4); FlashPlate): + (“+” indicates greater than 50% inhibition at 10 μM)
